Measurements taken from paper PMC8234864, “Early Effects of the Soluble Amyloid β25-35 Peptide in Rat Cortical Neurons: Modulation of Signal Transduction Mediated by Adenosine and Group I Metabotropic Glutamate Receptors” (International Journal of Molecular Sciences, 2021).
Where no end group is shown, it is not given here.

What was measured:
mGluR5 = experiment: Extracellular immunostaining of mGluR5 in non-permeabilized neurons; type: cell-based, rat; conditions: 25 µM, 24 h, whole-cell immunostaining
Method: The quantitative analysis of the levels of Group I mGluR and mGluR2,3 at the plasma membrane was performed with extracellular targeted polyclonal antibodies (mGluR1, mGluR5 and mGluR2,3, Alomone Labs, Jerusalem, Israel), as previously described with minor modifications. Briefly, after 2 weeks in culture, the culture medium was removed and cells washed with Locke Buffer (LB, pH 7.4). Cells were then fixed with 4% paraformaldehyde for 10 min at room temperature and washed with three 10-min intervals with LB.
Nonspecific staining was suppressed by blocking with 3% normal goat serum in LB for 60 min. […]
To evaluate the degree of fluorescence intensity in cortical neurons, fluorescence was measured to estimate the protein expression in the different experimental conditions analyzed. Images (448.6 µm × 335.08 µm) obtained with a digital camera (Leica DFC350FX R2), attached to a Leica DMI6000B (Leica Microsystems, Wetzlar, Germany) fluorescent microscope, were used for quantification (20x HCX PL FLUOTAR 0.4 dry objective). […] Fluorescence intensity was estimated by averaging mean grey values. […] Data were normalized to the total number of cells in the analyzed fields. The mean fluorescence background, calculated in the unstained regions between neurons, was subtracted from the fluorescence intensity of each data point. […]

[1] = tested on: A1R (ADORA1) gene expression; experiment: A1R gene expression by real-time PCR; type: cell-based, rat; conditions: 25 µM, 24 or 48 h
Method: (§1) Total RNA was extracted using an ABI 6100 Nucleic Acid PrepStation according to the manufacturer’s protocol (Applied Biosystems Inc., Foster City, CA, USA). Total RNA from cells was isolated and stored at −80 °C. The quality of isolated RNA was estimated by the ratio A260/A280 and was in the range of 1.9–2.1. RNA integrity was evaluated by agarose gel electrophoresis according to MIQE guidelines using the “bleach gel” method. RNA concentrations were determined from the A260. One microgram of total RNA was reverse transcribed using Applied Biosystems High-Capacity cDNA Archive Kit.
(§2) To assess relative gene expression in neurons, quantitative real-time RT-PCR analysis was performed with an Applied Biosystems Prism 7500 Fast Sequence Detection System using TaqMan® universal PCR master mix according to the manufacturer’s specifications. […] Levels of RNA expression were determined using the 7500 Fast System SDS software version 1.3.1 (Applied Biosystems) according to the 2^−ΔΔCt method. […] The results from three independent repeat assays, performed in different plates each using different cDNA’s from the cultures analyzed, were averaged to produce a single mean quantity value for each mRNA.

[2] = tested on: mGluR5 (GRM5) gene expression; experiment: mGluR5 gene expression by real-time PCR; type: cell-based, rat; conditions: 25 µM, 24 or 48 h, vs control neurons
Method: as §1, §2

rat cortical neurons = experiment: MTT reduction cell viability assay after Aβ exposure; type: cell-based; conditions: for decrease in cell viability: MTT reduction, vs control
Method: Aβ25-35 and Aβ1-42 were water-soluble peptides, however, while Aβ25-35, the functional domain of Aβ required for both neurotrophic and neurotoxic effects, was directly added to neuronal cultures after its solubilisation, Aβ1-42 was solved in water and maintained for 24 h at 37 °C before its addition to promote its aggregation. To test the effect of mGluR ligands on cell death induced by Aβ in neuronal cultures, these drugs were added 30 min before the addition of Aβ25-35 and maintained during Aβ exposure. Unless otherwise indicated, all chemicals were dissolved in water.
Cell viability was determined on 96-well plates using an in vitro toxicology assay kit based on a mitochondrial-dependent reaction that transforms 3-[4,5-dimetylthiazol-2-yl]-2,5-diphenyltetrazolium bromide (MTT) into formazan crystals. Briefly, at the end of treatments, cells were incubated in culture medium with MTT solution (5 mg/mL) at 37 °C for 3 h. After incubation, MTT solubilization solution (10% Triton X-100 plus 0.1 M HCl in isopropanol anhydrous) was added into the wells to dissolve formazan crystals and the absorbance of each well was measured at 570 nm and 690 nm, according to the manufacturer’s instructions.

For GSNKGAIIGLM [Aβ25-35], the “mGluR5 density at the membrane level vs control value” (mGluR5) was “twice over control value”, the A1R gene expression [1] was “significantly increased” and the mGluR5 gene expression [2] was “did not present any significant variation”. For the same sequence, the “decrease in cell viability” value (rat cortical neurons; 25 µM, 24 h) was about 40%, the cell viability (rat cortical neurons; 25 µM, 48 h, MTT) was “decrease in cell viability” and the “decrease in cell viability” value (rat cortical neurons; 50 µM, 24 h) was about 40%. The “cell viability, concentration dependence” value (rat cortical neurons; 1, 10, 25 and 50 µM, 24 h, MTT) was “concentration-dependent decrease in cell viability”.
